Test results from patent US11046672B2, “Indolinones compounds and their use in the treatment of fibrotic diseases” (RESPIVERT LIMITED, priority 2015, dated 2021).
pIC50, pKi: −log10 of the molar value.

Key:
PDGFRβ [1] = target: T1, PDGFRβ (Homo sapiens (Human), UniProt P09619); details: read-out: Ki PDGFRβ; mean, n = 2 unless otherwise indicated
PAMPA permeability assay = assay type: in vitro ADME; details: PAMPA; for recovery at 5 hr, 10 μM: donor and acceptor compartments; for Papp at 5 h, 10 μM: pH 7, pH 7, 10 μM
PDGFRβ [2] = target: T1, PDGFRβ; test: PDGF-BB induced phosphorylation of PDGFRβ in fibroblasts (MRC5 cells, HTRF); assay type: cell-based; details: MRC5 cells; n = 1 unless otherwise indicated; read-out: PDGFBB-induced PDGFRβ phosphorylation in MRC5 cells (IC50)
MRC5 cells = test: Cell viability assay in MRC5 cells (MTT)

T1 sequence (P09619 33-1106): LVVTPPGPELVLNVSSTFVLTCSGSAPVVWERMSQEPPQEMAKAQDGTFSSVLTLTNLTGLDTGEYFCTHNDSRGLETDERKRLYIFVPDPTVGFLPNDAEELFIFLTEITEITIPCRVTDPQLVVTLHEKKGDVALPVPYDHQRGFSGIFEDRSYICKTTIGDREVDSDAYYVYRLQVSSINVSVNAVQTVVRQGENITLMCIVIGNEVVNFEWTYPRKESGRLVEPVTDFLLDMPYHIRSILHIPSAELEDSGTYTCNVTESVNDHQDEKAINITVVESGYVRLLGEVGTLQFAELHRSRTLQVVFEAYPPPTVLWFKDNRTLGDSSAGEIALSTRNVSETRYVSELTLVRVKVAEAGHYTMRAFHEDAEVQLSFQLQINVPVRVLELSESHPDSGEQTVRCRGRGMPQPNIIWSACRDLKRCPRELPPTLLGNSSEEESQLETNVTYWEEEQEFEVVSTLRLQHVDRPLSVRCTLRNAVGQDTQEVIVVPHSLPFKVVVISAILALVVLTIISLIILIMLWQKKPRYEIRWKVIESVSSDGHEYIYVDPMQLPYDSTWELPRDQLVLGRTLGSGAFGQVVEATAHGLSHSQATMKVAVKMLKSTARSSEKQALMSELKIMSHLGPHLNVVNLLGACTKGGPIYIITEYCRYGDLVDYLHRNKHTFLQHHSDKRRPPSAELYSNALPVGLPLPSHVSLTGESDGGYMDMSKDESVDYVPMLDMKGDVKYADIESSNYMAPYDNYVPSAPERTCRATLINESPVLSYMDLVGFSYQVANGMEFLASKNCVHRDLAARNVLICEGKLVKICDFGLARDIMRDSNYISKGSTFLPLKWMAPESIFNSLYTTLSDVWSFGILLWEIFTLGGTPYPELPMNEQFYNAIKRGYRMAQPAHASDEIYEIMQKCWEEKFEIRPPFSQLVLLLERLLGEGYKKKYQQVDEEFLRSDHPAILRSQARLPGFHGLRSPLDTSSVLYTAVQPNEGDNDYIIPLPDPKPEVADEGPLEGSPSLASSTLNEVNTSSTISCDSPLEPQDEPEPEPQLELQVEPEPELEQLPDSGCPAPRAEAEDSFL

Row | SMILES | pKi (PDGFRβ [1]) | recovery at 5 hr, 10 μM (PAMPA permeability assay; pH 7, PAMPA) [%] | Papp at 5 h, 10 μM (PAMPA permeability assay) [×10⁻⁶ cm/s] | pIC50 (PDGFRβ [2]) | Cell viability at 100 nM (%) (MRC5 cells) | Cell viability at 300 nM (%) (MRC5 cells) | Cell viability at 1000 nM (%) (MRC5 cells) | recovery at 5 hr, 10 μM (PAMPA permeability assay; pH 7) [%]
1 | COC(=O)c1ccc2c(c1)NC(=O)/C2=C(\Nc1ccc(C(=O)N(C)OCCN2CCN(C)CC2)c(C)c1)c1ccccc1 [Example 18] | 7.96 | 51.5 | 0.424 | 8.43 | 104.5 | 90.3 | 68.7 | 
2 | COC(=O)c1cc2c(cc1C)/C(=C(/Nc1ccc(S(=O)(=O)NOCCN3CCN(C)CC3)cc1)c1ccccc1)C(=O)N2 [Example 2, (Z)-Methyl 5-methyl-3-(((4-(N-(2-(4-methylpiperazin-1-yl)ethoxy)sulfamoyl)phenyl)amino)(phenyl)methylene)-2-oxoindoline-6-carboxylate] | 7.72 | 54.1 | 0.0261 | 7.40 | 124.5 | 104.4 | 101.2 | 
3 | COC(=O)c1cc2c(cc1C)/C(=C(/Nc1ccc(C(=O)NOCCCN(C)C)c(C)c1)c1ccccc1)C(=O)N2 [Example 29] | 8.13 | 65.1 | 0.00415 | 8.50 | 92 | 85.8 | 91.8 | 
4 | COC(=O)c1cc2c(cc1C)/C(=C(/Nc1ccc(C(=O)NOC3CCN(C)CC3)cc1)c1ccccc1)C(=O)N2 [Example 30] | 8.14 | 87 | 0.00225 | 8.13 | 96.1 | 87.7 | 26 | 
5 | COC(=O)c1cc2c(cc1C)/C(=C(/Nc1ccc(C(=O)N(C)OCCN(C)CCO)cc1)c1ccccc1)C(=O)N2 [Example 56] | 8.14 | 69.7 | 0.719 | 8.40 | 132 | 121 | 70.5 | 
6 | COC(=O)c1cc2c(cc1C)/C(=C(/Nc1ccc(C(=O)NOCCN3CCN(C)CC3)c(F)c1)c1ccccc1)C(=O)N2 [Example 32] | 8.31 | 42.8 | 0.0192 | 8.51 | 93.5 | 82.3 | 66.3 | 
7 | COC(=O)c1ccc2c(c1)NC(=O)/C2=C(\Nc1ccc(C(=O)NOCCN2CCNC(=O)C2)cc1)c1ccccc1 [Example 42] | 8.15 | 76.8 | 0.0264 | 7.25 | 114.5 | 109.6 | 118.3 | 
8 | COC(=O)c1ccc2c(c1)NC(=O)/C2=C(\Nc1ccc(C(=O)NOCCN2CC[C@H](N(C)C)C2)cc1)c1ccccc1 [Example 38] | 8.16 | 55.4 | 0.00569 | 7.84 | 89.3 | 90.8 | 93 | 
9 | COC(=O)c1ccc2c(c1)NC(=O)/C2=C(\Nc1ccc(C(=O)NOCCN2CCS(=O)(=O)CC2)cc1)c1ccccc1 [Example 41] | 7.82 | 59.6 | 0.00258 | 7.43 | 112.3 | 96.1 | 86.8 | 
10 | COC(=O)c1ccc2c(c1)NC(=O)/C2=C(\Nc1ccc(C(=O)NOCCN2CCC(N(C)C)CC2)cc1)c1ccccc1 [Example 47] | 7.99 |  |  | 7.41 | 112 | 102.4 | 93 | 
11 | COC(=O)c1cc2c(cc1C)/C(=C(/Nc1ccc(C(=O)N(C)OCCN3CC4CCC(C3)N4)cc1)c1ccccc1)C(=O)N2 [Example 61] | 7.74 |  | 0.0205 | 8.11 | 83 | 86.6 | 35.2 | 64.4
12 | COC(=O)c1ccc2c(c1)NC(=O)/C2=C(\Nc1ccc(C(=O)NOCCN2[C@H](C)CCC[C@@H]2C)cc1)c1ccccc1 [Example 44] | 6.99 |  |  | 7.13 | 103 | 105.9 | 109.8 | 
13 | COC(=O)c1ccc2c(c1)NC(=O)/C2=C(\Nc1ccc(C(=O)NOCCN2CCC(O)CC2)cc1)c1ccccc1 [Example 40] | 8.12 | 75 | 0.00954 | 7.53 | 103.8 | 103.8 | 110.5 | 
14 | COC(=O)c1ccc2c(c1)NC(=O)/C2=C(\Nc1ccc(C(=O)N2CCO2)cc1)c1ccccc1 [Example 37] | 6.61 |  |  | 7.62 | 95.2 | 98.9 | 106 | 
15 | COC(=O)c1cc2c(cc1C)/C(=C(/Nc1ccc(C(=O)N(C)OCCN3CCN(CCO)CC3)cc1)c1ccccc1)C(=O)N2 [Example 58] | 8.05 | 49.5 | 0.0296 | 8.39 | 110.2 | 116.9 | 55.6 | 
16 | COC(=O)c1cc2c(cc1C)/C(=C(/Nc1ccc(C(=O)NOCCN3CCC(N(C)C)CC3)cc1)c1ccccc1)C(=O)N2 [Example 50] | 8.03 | 179 | 0.0566 | 8.03 | 107.5 | 92.6 | 69.7 | 
17 | COC(=O)c1cc2c(cc1C)/C(=C(/Nc1ccc(C(=O)NOCCCN(C)C)cc1)c1ccccc1)C(=O)N2 [Example 27] | 8.32 | 61.2 | 0.00146 | 7.98 | 94.9 | 88.6 | 86.4 | 
18 | COC(=O)c1cc2c(cc1C)/C(=C(/Nc1ccc(C(=O)NOCCN3CCCCC3)cc1)c1ccccc1)C(=O)N2 [Example 49] | 7.51 | 75.2 | 0.0768 | 7.40 | 124.5 | 110.8 | 69.4 | 
19 | COC(=O)c1cc2c(cc1C)/C(=C(/Nc1ccc(C(=O)N(OC)C3CCN(C)CC3)cc1)c1ccccc1)C(=O)N2 [Example 35] | 7.66 |  |  | 7.57 | 92.9 | 77.2 | 75.7 | 
20 | COC(=O)c1cc2c(cc1C)/C(=C(/Nc1ccc(C(=O)NOC3CCN(C)CC3)c(C)c1)c1ccccc1)C(=O)N2 [Example 31] | 8.18 |  |  | 8.11 | 111.7 | 97.3 | 95.7 | 
21 | COC(=O)c1cc2c(cc1C)/C(=C(/Nc1ccc(C(=O)N(OC)C3CCN(C)CC3)c(C)c1)c1ccccc1)C(=O)N2 [Example 34] | 7.80 |  |  | 7.87 | 114.8 | 80 | 61.5 | 
22 | COC(=O)c1ccc2c(c1)NC(=O)/C2=C(\Nc1ccc(C(=O)NOCCN2CCN(CCO)CC2)cc1)c1ccccc1 [Example 39] | 8.27 |  |  | 7.47 | 89.9 | 90.1 | 90.8 | 
23 | COC(=O)c1cc2c(cc1C)/C(=C(/Nc1ccc(C(=O)NOCCN3CCC(O)CC3)cc1)c1ccccc1)C(=O)N2 [Example 54] | 7.74 |  |  | 7.47 | 101 | 99.8 | 92.9 | 
24 | COC(=O)c1ccc2c(c1)NC(=O)/C2=C(\Nc1ccc(C(=O)N(OC)C2CCN(C)CC2)cc1)c1ccccc1 [Example 21] | 7.99 |  |  | 8.17 | 95.5 | 86.6 | 53 | 
25 | COC(=O)c1cc2c(cc1C)/C(=C(/Nc1ccc(C(=O)NOCCCN3CCCCC3)cc1)c1ccccc1)C(=O)N2 [Example 53] | 7.69 |  |  | 7.36 | 124.2 | 96.8 | 97.8 | 
26 | COC(=O)c1ccc2c(c1)NC(=O)/C2=C(\Nc1ccc(C(=O)NOCCN2CCCCC2)cc1)c1ccccc1 [Example 8, (Z)-Methyl 2-oxo-3-(phenyl((4-((2-(piperidin-1-yl)ethoxy)carbamoyl)phenyl)amino)methylene)indoline-6-carboxylate] | 7.56 |  |  | 7.67 | 93.4 | 95.7 | 91 | 
27 | COC(=O)c1cc2c(cc1C)/C(=C(/Nc1ccc(C(=O)NOCCN3CCC(C#N)CC3)cc1)c1ccccc1)C(=O)N2 [Example 63] | 7.80 |  |  | 8.32 | 99 | 116.9 | 12.1 | 
